Several values for one entry are separate records, joined by “and”; a condition that tells them apart may be missing. Equal values may be shown once.

Among the data in PubChem BioAssay AID1918956 (Molecular Pharmacology Branch, DTP, NCI, 2023) are IC50 and viability, T/C values, retold here.

For this experiment, the system named is OVCAR-5 complex spheroids, viability. The experiment is described as follows: Anticancer human tumor OVCAR-5 cell line growth inhibition.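 As to all read-outs here: spheroids exposed to agents for seven days.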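 As to viability, T/C: 100% = DMSO vehicle control wells viability.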 As to conditions: for viability, T/C: stronger effect = lower value. In short, it runs like this: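 Drug combinations with the LSD1 inhibitor iadademstat tested on tumor cells co-cultured as spheroids with endothelial cells and mesenchymal stem cells. Concentrations descended in half-log increments from clinical Cmax or 10 microM.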

[1] abbreviates: curve of first compound, second compound 0.1 µM.
[2] abbreviates: curve of first compound, second compound 0.316 µM.
[3] abbreviates: curve of first compound, second compound 1 µM.
Where [4] appears, read: curve of first compound, second compound 3.16 µM.
The mark [5] stands for this setting: curve of first compound, second compound 10 µM.
Where [6] appears, read: second compound 0.1 µM, first compound 0.0316 µM.
[7] abbreviates: second compound 0.1 µM, first compound 0.1 µM.
The mark [8] stands for this setting: second compound 0.1 µM, first compound 0.316 µM.
The mark [9] stands for this setting: second compound 0.1 µM, first compound 1 µM.
[10] abbreviates: second compound 0.316 µM, first compound 0.0316 µM.
Where [11] appears, read: second compound 0.316 µM, first compound 0.1 µM.
[12] abbreviates: second compound 0.316 µM, first compound 0.316 µM.
The mark [13] stands for this setting: second compound 0.316 µM, first compound 1 µM.
Where [14] appears, read: second compound 1 µM, first compound 0.0316 µM.
Setting [15] is: second compound 1 µM, first compound 0.1 µM.
The mark [16] stands for this setting: second compound 1 µM, first compound 0.316 µM.
Setting [17] is: second compound 1 µM, first compound 1 µM.
The mark [18] stands for this setting: second compound 3.16 µM, first compound 0.0316 µM.
Setting [19] is: second compound 3.16 µM, first compound 0.1 µM.
Setting [20] is: second compound 3.16 µM, first compound 0.316 µM.
Where [21] appears, read: second compound 3.16 µM, first compound 1 µM.
[22] abbreviates: second compound 10 µM, first compound 0.0316 µM.
The mark [23] stands for this setting: second compound 10 µM, first compound 0.1 µM.
Setting [24] is: second compound 10 µM, first compound 0.316 µM.
The mark [25] stands for this setting: second compound 10 µM, first compound 1 µM.

In general, IC50 refers to the point on the concentration scale where inhibition reaches its midpoint. For orientation: viability, T/C means the ratio of treated to control. For the molecule `COc1cc(C2c3cc4c(cc3C(OC3OC5COC(C)OC5C(O)C3O)C3COC(=O)C23)OCO4)cc(OC)c1O` (stereo not drawn) + NC1CC1c1ccc(-c2cccc(O)c2)cc1, the IC50 worked out at 407 nM under setting [1]; 503 nM under setting [2]; 397 nM under setting [3]; 422 nM under setting [4]; 302 nM under setting [5]. In addition, the viability, T/C is, setting by setting: (second compound 0.1 µM, first compound 0.00949 µM) 94.9%; (second compound 0.1 µM, first compound 0.03 µM) 93.3%; (second compound 0.1 µM, first compound 0.0949 µM) 80.2%; (second compound 0.1 µM, first compound 0.3 µM) 55.3%; (second compound 0.1 µM, first compound 0.949 µM) 36.1%; (second compound 0.1 µM, first compound 3 µM) 32.5%. Moreover, the viability, T/C runs as follows: (second compound 0.316 µM, first compound 0.00949 µM) 96.7%; (second compound 0.316 µM, first compound 0.03 µM) 109%; (second compound 0.316 µM, first compound 0.0949 µM) 91.8%; (second compound 0.316 µM, first compound 0.3 µM) 61.7%; (second compound 0.316 µM, first compound 0.949 µM) 35.8%; (second compound 0.316 µM, first compound 3 µM) 32.3%. The viability, T/C runs as follows: (second compound 1 µM, first compound 0.00949 µM) 100%; (second compound 1 µM, first compound 0.03 µM) 103%; (second compound 1 µM, first compound 0.0949 µM) 85.5%; (second compound 1 µM, first compound 0.3 µM) 56.8%; (second compound 1 µM, first compound 0.949 µM) 31.4%; (second compound 1 µM, first compound 3 µM) 32.4%. Further, the viability, T/C was 89.1% (second compound 3.16 µM, first compound 0.00949 µM); 85.2% (second compound 3.16 µM, first compound 0.03 µM); 74.9% (second compound 3.16 µM, first compound 0.0949 µM); 55% (second compound 3.16 µM, first compound 0.3 µM); 38.4% (second compound 3.16 µM, first compound 0.949 µM); 34.6% (second compound 3.16 µM, first compound 3 µM). Also, the viability, T/C by setting is: (second compound 10 µM, first compound 0.00949 µM) 85.1%; (second compound 10 µM, first compound 0.03 µM) 88.8%; (second compound 10 µM, first compound 0.0949 µM) 67.5%; (second compound 10 µM, first compound 0.3 µM) 53.3%; (second compound 10 µM, first compound 0.949 µM) 35.2%; (second compound 10 µM, first compound 3 µM) 37%.

For `O=C(C=Cn1cnc(-c2cc(C(F)(F)F)cc(C(F)(F)F)c2)n1)NNc1cnccn1` + NC1CC1c1ccc(-c2cccc(O)c2)cc1, the IC50 is 55.6 nM under setting [1]; 50.5 nM under setting [2]; 39.1 nM under setting [3]; 23 nM under setting [4]; 19.8 nM under setting [5]. In addition, the viability, T/C was 88.9% (second compound 0.1 µM, first compound 0.00316 µM); 73.9% (second compound 0.1 µM, first compound 0.01 µM); 57.2% under setting [6]; 42.1% under setting [7]; 38% under setting [8]; 33.9% under setting [9]. Also, the viability, T/C is 87.8% (second compound 0.316 µM, first compound 0.00316 µM); 72% (second compound 0.316 µM, first compound 0.01 µM); 54.9% under setting [10]; 42.2% under setting [11]; 39.1% under setting [12]; 34.4% under setting [13]. In addition, the viability, T/C is 84% (second compound 1 µM, first compound 0.00316 µM); 65.9% (second compound 1 µM, first compound 0.01 µM); 53.8% under setting [14]; 39.4% under setting [15]; 36.2% under setting [16]; 31.7% under setting [17]. Moreover, the viability, T/C runs as follows: (second compound 3.16 µM, first compound 0.00316 µM) 81.7%; (second compound 3.16 µM, first compound 0.01 µM) 62.9%; under setting [18], 43.1%; under setting [19], 38.5%; under setting [20], 34.7%; under setting [21], 29.7%. Besides, the viability, T/C (second compound 10 µM, first compound 0.00316 µM) was 79%; the viability, T/C (second compound 10 µM, first compound 0.01 µM) is 60.8%; the viability, T/C under setting [22] was 42.6%; the viability, T/C under setting [23] is 36.6%; the viability, T/C under setting [24] is 33.6%; the viability, T/C under setting [25] was 35.2%.

For `CCc1c2c(nc3ccc(O)cc13)-c1cc3c(c(=O)n1C2)COC(=O)[C@]3(O)CC`, the viability, T/C (compound 0.000949 µM) is 39.2% and 30.3%; the viability, T/C (compound 0.003 µM) is 21.2% and 19.1%; the viability, T/C (compound 0.00949 µM) is 8.48% and 7.2%; the viability, T/C (compound 0.03 µM) is 3.26% and 2.51%; the viability, T/C (compound 0.0949 µM) was 1.15% and 0.63%; the viability, T/C (compound 0.3 µM) was 0.68% and 0.54%. In addition, for the setting “curve of compound”, the IC50 was under 0.949 nM.

For `COc1cc(Nc2ncc3c(n2)-c2ccc(Cl)cc2C(c2c(F)cccc2OC)=NC3)ccc1C(=O)O`, the viability, T/C runs as follows: (compound 0.00316 µM) 94.1% and 95.2%; (compound 0.01 µM) 88.5% and 86.9%; (compound 0.0316 µM) 74.8% and 74.2%; (compound 0.1 µM) 59.8% and 52.2%; (compound 0.316 µM) 57% and 49%; (compound 1 µM) 53.1% and 49.2%. The IC50 (curve of compound) was > 1000 nM and 250 nM.

`O=C(C=Cc1cccc(S(=O)(=O)Nc2ccccc2)c1)NO`: the viability, T/C is, setting by setting: (compound 0.00949 µM) 89.1% and 94.7%; (compound 0.03 µM) 88.7% and 80.5%; (compound 0.0949 µM) 61.9% and 55.5%; (compound 0.3 µM) 31.6% and 27.4%; (compound 0.949 µM) 15.4% and 10.4%; (compound 3 µM) 4.04% and 2.72%. For the same molecule, the IC50 (curve of compound) is 156 nM and 118 nM.

Take `CC(C)c1c(-c2ccccc2)nc2c(C#N)c[nH]n2c1=O`: the viability, T/C runs as follows: (compound 0.0316 µM) 117% and 105%; (compound 0.1 µM) 108% and 94.7%; (compound 0.316 µM) 107% and 104%; (compound 1 µM) 107% and 102%; (compound 3.16 µM) 117% and 104%; (compound 10 µM) 104% and 100%. Also, the IC50 (curve of compound) was over 10000 nM.

As to `O=C(c1cc(Cc2n[nH]c(=O)c3ccccc23)ccc1F)N1CCN(C(=O)C2CC2)CC1` + NC1CC1c1ccc(-c2cccc(O)c2)cc1, the IC50 under setting [1] is over 10000 nM; the IC50 under setting [2] was over 10000 nM; the IC50 under setting [3] was over 10000 nM; the half-inhibitory concentration (IC50) under setting [4] was over 10000 nM; the IC50 under setting [5] was over 10000 nM. Moreover, the viability, T/C reads like this: under setting [6], 97.6%; under setting [7], 112%; under setting [8], 102%; under setting [9], 88%; (second compound 0.1 µM, first compound 3.16 µM) 76.9%; (second compound 0.1 µM, first compound 10 µM) 74.9%. In addition, the viability, T/C reads like this: under setting [10], 114%; under setting [11], 104%; under setting [12], 99.4%; under setting [13], 93.7%; (second compound 0.316 µM, first compound 3.16 µM) 85.3%; (second compound 0.316 µM, first compound 10 µM) 73.8%. For the same molecule, the viability, T/C is 94.9% under setting [14]; 105% under setting [15]; 93.7% under setting [16]; 81.2% under setting [17]; 81.5% (second compound 1 µM, first compound 3.16 µM); 72.3% (second compound 1 µM, first compound 10 µM). Moreover, the viability, T/C runs as follows: under setting [18], 97.9%; under setting [19], 86.9%; under setting [20], 96.9%; under setting [21], 83%; (second compound 3.16 µM, first compound 3.16 µM) 71%; (second compound 3.16 µM, first compound 10 µM) 65.5%. Besides, the viability, T/C under setting [22] was 95.8%; the viability, T/C under setting [23] is 87%; the viability, T/C under setting [24] is 70.5%; the viability, T/C under setting [25] is 81.9%; the viability, T/C (second compound 10 µM, first compound 3.16 µM) was 73.2%; the viability, T/C (second compound 10 µM, first compound 10 µM) is 60.2%.
